The test system of data set [1] is OCM-1 human uveal melanoma tumor in male NOD-SCID mice. Nature of the data set: In vivo tumor growth inhibition, OCM-1 xenograft. Also on record: species or system mouse. To be noted: for Normalized liver weight, value line 1 / Normalized liver weight, value line 2 / Normalized liver weight, value line 3 / Normalized liver weight, value line 4 / Normalized liver weight, value line 5 / Normalized liver weight, value line 6 / Normalized liver weight, value line 7 / Normalized liver weight, line printed as "ave": Table S2; for Normalized liver weight, value line 1 / Normalized liver weight, value line 2 / Normalized liver weight, value line 3 / Normalized liver weight, value line 4 / Normalized liver weight, value line 5 / Normalized liver weight, value line 6 / Normalized liver weight, value line 7: single animal; for Normalized liver weight, line printed as "ave": value line 8. Here is the method:
In the next experiment, the murine xenograft melanoma model establishment studies were performed using 8–12-week-old male NOD-SCID mice. For selection of the most suitable tumor model, three cell lines were then inoculated subcutaneously, OCM-1, SK-MEL-202, and WM983A. Cells were injected in a 0.1 mL RPMI-1640 basic medium in a concentration of 1.5·× 10^6 cells/mL, and the tumor growth and weight of mice were monitored 2–3 times per week. Subsequently, the antitumor effects of the Dau–α-MSH conjugates were determined in a mouse xenograft melanoma model selected as described above. Once the tumor volume reached 60 mm^3, mice were randomized and assigned to different groups for each treatment: 0.9% saline as a control, free daunomycin, Conj2 and Conj4. Treatments were injected intraperitoneally every fifth day, three times in total (daunomycin dosage of 5 mg/kg in case of Conj2, 10 mg/kg for Conj4, respectively, which was determined based on the toxicity tests, and 1 mg/kg were used for free drug–MTD). The weight and tumor size of mice were monitored during the whole experiment. On Day 33, mice were euthanized, and the primary tumor, heart, lung, liver, and spleen were harvested and stored in 4% formalin (Molar Chemicals, Halásztelek, Hungary). Liver weight was measured for the calculation of the toxicity of conjugates and daunomycin.

Data set [2] deals with OCM-3 cells. As to the kind of experiment: In vitro cytostatic effect, PrestoBlue assay. It is filed as cell-based, human. The source says: (§1) The following cell cultures were used for the biological evaluation of the synthetic melanoma-specific peptide–drug (Dau–α-MSH) conjugates: A2058 (human skin melanoma, CVCL_1059), M24 (human metastatic skin melanoma, CVCL_D032), OCM-1 (human ocular choroidal melanoma-1, CVCL_6934), OCM-3 (human ocular choroidal melanoma-3, CVCL_6937), WM983A (human metastatic skin melanoma, CVCL_6808), WM983B (human metastatic skin melanoma CVCL_6809), SK-MEL-202 (human skin melanoma, ATCC HTB-68) and B16 (mouse melanoma, ATCC: CRL-6475). Cells were maintained in RPMI-1640 (Lonza, Basel, Switzerland), supplied with 10% FBS (fetal bovine serum; BioSera, Nuaille, France), L-glutamine, and 1% penicillin–streptomycin (from 10 000 units penicillin and 10 mg streptomycin/mL, Gibco, Dublin, Ireland) at 37 °C in a 5% CO2 atmosphere. No mycoplasma contamination was detected in the cell cultures.
(§2) The in vitro cytostatic effect of the Dau–α-MSH conjugate with optimized sequence (Conj4) was investigated and compared with Conj2 by PrestoBlue assay using human melanoma cell cultures with different origins. For determination of the cytostatic effect of the conjugates, the cells were treated with the compounds at 0.003–200 μM concentration range dissolved in the corresponding serum-free medium for 72 h. After the treatment, the PrestoBlue assay (purchased from Invitrogen (Waltham, MA, USA) was carried out to determine the IC50 values of the compounds. Based on the IC50 values, we also determined the targeting index (TI) of the conjugates using the following equation [58]: TI=IC50neg/IC50posconjugate/IC50neg/IC50posfree drug

Data set [3] has as its system A2058 cells. Nature of the data set: In vitro cytostatic effect, PrestoBlue assay. It is filed as cell-based, human.
Excerpt: as §1, §2

Data set [4] relates to WM983B cells. As to the kind of experiment: In vitro cytostatic effect, PrestoBlue assay. It is filed as cell-based, human.
Excerpt: as §1, §2

Data set [5] deals with WM983A cells. As to the kind of experiment: In vitro cytostatic effect, PrestoBlue assay. It is filed as cell-based, human.
Excerpt: as §1, §2

Data set [6] has as its system SK-MEL-202 cells. As to the kind of experiment: In vitro cytostatic effect, PrestoBlue assay. Type of data set: cell-based, human.
Excerpt: as §1, §2

In data set [7] the test system is OCM-1 cells. As to the kind of experiment: In vitro cytostatic effect, PrestoBlue assay. It is filed as cell-based, human.
Excerpt: as §1, §2

Data set [8] deals with M24 human melanoma cell line. Nature of the data set: In vitro antiproliferative activity, MTT assay. As to conditions: ratio of IC50 values of free Dau and conjugate. Type of data set: cell-based.
Excerpt: as §1
(§3) The in vitro cytostatic effect of Dau–α-MSH conjugates was determined by two different assays. The full-length Dau–α-MSH conjugates were investigated by MTT assay using human and murine melanoma cell cultures. For determination of the cytostatic effect of these conjugates, the cells were treated with the compounds at 0.8–100 μM concentration range dissolved in the corresponding serum-free media for 24 h. After incubation, the treating solutions were removed, the cells were washed two times with serum-free medium and cultured for 48 h in the appropriate serum-containing cell culture medium. On the fourth day, the MTT assay was carried out to determine the IC50 values of the compounds. IC50 is the concentration that inhibits cell proliferation by 50%. Nonlinear regression analysis was performed with Prism 6 software (GraphPad, La Jolla, CA, USA) to generate sigmoidal dose–response curves, from which the 50% inhibitory concentration (IC50) values of the compounds were calculated and presented as micromolar (µM) units. The experiments were done in triplicate, and each experiment was repeated twice.

For data set [9], the system named is A2058 human melanoma cell line. As to the kind of experiment: In vitro antiproliferative activity, MTT assay. It is filed as cell-based. To be noted: ratio of IC50 values of free Dau and conjugate.
Excerpt: as §1, §3

For data set [10], the system named is WM983B human melanoma cell line. As to the kind of experiment: In vitro antiproliferative activity, MTT assay. It is filed as cell-based. To be noted: ratio of IC50 values of free Dau and conjugate.
Excerpt: as §1, §3

The subject of data set [11] is healthy male BALB/c mice. As to the kind of experiment: In vivo acute toxicity study on healthy mice. Also noted: species or system mouse. The procedure:
To determine toxicity of conjugates on healthy animals, in vivo acute toxicity study of Dau, Conj2 and Conj4 was performed. In the first experiment, adult BALB/c male mice (29–31 g) were exposed by one injection of the conjugate at the start of experiment, by intraperitoneal (i.p.) administration. A dose of 25 mg Dau content/kg was used, in a volume of 0.1 mL per mice (3 mice per condition). In the second in vivo experiment, NOD-SCID mice were exposed by four injections of the conjugates at the start of experiment, by intraperitoneal (i.p.) administration. Doses of 5, 10 and 15 mg Dau content/kg were used for the toxicity assay, at a volume of 0.1 mL per mice (3 mice per condition). The animals were kept under the conditions as described above.

The test system of data set [12] is B16 murine melanoma cell line. As to the kind of experiment: In vitro antiproliferative activity, MTT assay. It is filed as cell-based, mouse. As to conditions: ratio of IC50 values of free Dau and conjugate.
Excerpt: as §1, §3

Data set [13] deals with subcutaneous B16 murine melanoma in C57BL/6 male mice. Nature of the data set: In vivo antitumor effect, subcutaneous B16 melanoma allograft. As to conditions: conjugates 10 mg Dau content/kg.
Experimental: In the first experiment, B16 murine melanoma cells were subcutaneously (s.c.) injected into side of the latero-abdominal region of 35 C57BL/6 male mice (20–28 g), which murine strain is syngeneic for the B16 melanoma tumor cell line [59, 60], 6.5 ×·10^5 cells in a volume of 200 µL M199 medium was inoculated per animal. Mice were randomized in a stratified procedure considering two main factors. The primary factor was to obtain groups with the most equal tumor sizes, the secondary factor was to have groups in which the weight of mice are the most equal. The treatment started 9 days after cell inoculation when average tumor volume was 30 mm^3. Compounds were dissolved in saline solution (Teva, Debrecen, Hungary), and administered via i.p. injection in a volume of 0.1 mL per 10 g of bodyweight. […] Animal weight and tumor volumes were measured initially when the treatment started and at periodic intervals following treatment. A digital caliper was used to measure the longest (a) and the shortest diameter (b) of a given tumor. The tumor volume was calculated using the formula V = ab^2 × π/6, whereby a and b represent the measured parameters (length and width). Termination of the experiment was 20 days after cell inoculation, i.e., 12 days after treatment started, since the average volume of the tumors in the control group reached over 1800 mm^3. The mice from all groups were sacrificed by cervical dislocation after which their tumors were harvested and weighed for antitumor effect assessment. Antitumor effect of treatments was evaluated measuring the tumor volume and calculating the percentage of how much the tumor volume grew in comparison to the starting tumor volume which was set arbitrarily for all tumors as 100% at the start of treatment.
Where [14] appears, read: change compared to control group, minus = inhibition, free Dau 1 mg/kg.

Square brackets hold non-standard residues; d marks the D form. Peptide text beside a SMILES is read from it. * marks the point of attachment. Daunorubicin(13-NOCH2CO) = COc1cccc2c1C(=O)c1c(O)c3c(c(O)c1C2=O)C[C@@](O)(C(C)=NOCC(=O)*)C[C@@H]3O[C@H]1C[C@H](N)[C@H](O)[C@H](C)O1; Nle = CCCC[C@H](N)C(=O)O

For `CCCC[C@H](NC(C)=O)C(=O)N[C@@H](CCC(=O)O)C(=O)N[C@@H](Cc1c[nH]cn1)C(=O)N[C@H](Cc1ccccc1)C(=O)N[C@@H](CCCNC(=N)N)C(=O)N[C@@H](Cc1c[nH]c2ccccc12)C(=O)NCC(=O)N[C@@H](CCCCNC(=O)CON=C(C)[C@]1(O)Cc2c(O)c3c(c(O)c2[C@@H](O[C@H]2C[C@H](N)[C@H](O)[C@H](C)O2)C1)C(=O)c1c(OC)cccc1C3=O)C(N)=O` [Conj4, Ac-NleEHfRWGK(Dau=Aoa)-NH2] (Ac-[Nle]EH[dF]RWGK(Daunorubicin(13-NOCH2CO))-NH2), in [1], the “Normalized liver weight, value line 1” value is on record as 5.23%; the “Normalized liver weight, value line 2” value is 4.34%; the “Normalized liver weight, value line 3” value is 4.47%; the “Normalized liver weight, value line 4” value turned out to be 4.50%. In [1], the “Normalized liver weight, value line 5” value worked out at 5.35%; the “Normalized liver weight, value line 6” value turned out to be 4.70%; the “Normalized liver weight, value line 7” value amounted to 5.11%; the “Normalized liver weight, line printed as "ave"” value is given as 4.62%. In data set [2] (OCM-3, PrestoBlue, 0.003–200 μM in serum-free medium 72 h, mean ± SEM of three independent experiments), this molecule came in with an IC50 of 25.47 ± 0.08 µM. This molecule also returned an IC50 in data set [3] (A2058, PrestoBlue, 0.003–200 μM in serum-free medium 72 h, mean ± SEM of three independent experiments) of 7.15 ± 0.07 µM. The same molecule registered an IC50 in data set [4] (WM983B, PrestoBlue, 0.003–200 μM in serum-free medium 72 h, mean ± SEM of three independent experiments) of 10.18 ± 0.06 µM. The molecule further gave a 50% inhibitory concentration (IC50) in data set [5] (WM983A, PrestoBlue, 0.003–200 μM in serum-free medium 72 h, mean ± SEM of three independent experiments) of 13.5 ± 0.06 µM. Also, the midpoint of inhibition in [6] (SK-MEL-202, PrestoBlue, 0.003–200 μM in serum-free medium 72 h, mean ± SEM of three independent experiments), the IC50, lay at 2.06 ± 0.1 µM. This molecule gave an IC50 in data set [7] (OCM-1, PrestoBlue, 0.003–200 μM in serum-free medium 72 h, mean ± SEM of three independent experiments) of 29.68 ± 0.06 µM.
In the case of `CCCC[C@H](NC(=O)[C@H](CO)NC(=O)[C@H](Cc1ccc(O)cc1)NC(=O)[C@H](CO)NC(C)=O)C(=O)N[C@@H](CCC(=O)O)C(=O)N[C@@H](Cc1c[nH]cn1)C(=O)N[C@@H](Cc1ccccc1)C(=O)N[C@@H](CCCNC(=N)N)C(=O)N[C@@H](Cc1c[nH]c2ccccc12)C(=O)NCC(=O)N[C@@H](CCCCNC(=O)CON=C(C)[C@]1(O)Cc2c(O)c3c(c(O)c2[C@@H](O[C@H]2C[C@H](N)[C@H](O)[C@H](C)O2)C1)C(=O)c1c(OC)cccc1C3=O)C(=O)N1CCC[C@H]1C(=O)N[C@H](C(N)=O)C(C)C` [Conj2, Ac-SYSNleEHFRWGK(Dau=Aoa)PV-NH2], the “Relative Potency” value in [8] turned out to be 0.0103. Besides, in [9], the “Relative Potency” value is given as 0.0125. Also, the “Relative Potency” value in [10] stood at 0.0063. In addition, in [11] (after 14 days, one i.p. injection 25 mg Dau content/kg, BALB/c male mice), the “Changes in bodyweight, liver mass, general appearance and behavior” value is on record as “no significant changes”. In [11] (one i.p. injection, up to 25 mg Dau content/kg, healthy BALB/c male mice, 3 mice, 14 days), the Acute toxicity result is listed as “does not show acute toxicity”. Besides, the “Growth of the tumor reduced to % of the control size” value in data set [1] (Day 33, 5 mg/kg Dau content i.p., three treatments (days 15, 19, 23), p: 0.0056) was 55%. Moreover, in [1], the “Normalized liver weight, value line 1” value amounted to 3.77%; the “Normalized liver weight, value line 2” value is 5.10%; the “Normalized liver weight, value line 3” value amounted to 4.35%; the “Normalized liver weight, value line 4” value amounted to 4.14%. In [1], the “Normalized liver weight, value line 5” value came out at 4.73%; the “Normalized liver weight, value line 6” value came to 4.15%; the “Normalized liver weight, value line 7” value is reported as 4.90%; the “Normalized liver weight, line printed as "ave"” value is on record as 4.55%. Further, in [12], the “Relative Potency” value is listed as 0.0093. In addition, the “Tumor growth inhibition based on tumor weight, in comparison to the control group” value in data set [13] (after termination (day 20), free Dau 1 mg/kg i.p.) amounted to 38.6%. The “Tumor weigh in % (Table S1)” value in data set [13] (change compared to control group, minus = decrease, free Dau 1 mg/kg) is -38.6%. Moreover, in data set [13] (setting [14]), the “Tumor volume in % (Table S1)” value is -75.4% and the “Tumor volume in mm3 (Table S1)” value is on record as -37.8%. For the same molecule, the “Targeting Index (TI)” value in data set [2] (OCM-3 versus A2058, TI = (IC50neg/IC50pos conjugate)/(IC50neg/IC50pos free drug)) turned out to be 1.85. For the same molecule, the “Targeting Index (TI)” value in [3] (A2058 (reference cell line), TI = (IC50neg/IC50pos conjugate)/(IC50neg/IC50pos free drug)) was determined as 1.00. The “Targeting Index (TI)” value in [4] (WM983B versus A2058, TI = (IC50neg/IC50pos conjugate)/(IC50neg/IC50pos free drug)) was 2.61. For the same molecule, in [5] (WM983A versus A2058, TI = (IC50neg/IC50pos conjugate)/(IC50neg/IC50pos free drug)), the “Targeting Index (TI)” value is 1.90. In addition, the “Targeting Index (TI)” value in data set [6] (SK-MEL-202 versus A2058, TI = (IC50neg/IC50pos conjugate)/(IC50neg/IC50pos free drug)) turned out to be 2.74. Also, the “Targeting Index (TI)” value in data set [7] (OCM-1 versus A2058, TI = (IC50neg/IC50pos conjugate)/(IC50neg/IC50pos free drug)) is 2.30.

The values are drawn from PMC10816934, “Targeting the Melanocortin 1 Receptor in Melanoma: Biological Activity of α-MSH–Peptide Conjugates” (International Journal of Molecular Sciences, 2024).
